Experimental data reported in patent US9745291B2, “PRMT5 inhibitors containing a dihydro- or tetrahydroisoquinoline and uses thereof” (Epizyme, Inc., priority 2012, dated 2017).
Values belong to the compound of their own block, whether it stands above or below them.

Target: PRMT5/MEP50 (Homo sapiens (Human), UniProt O14744)
Assay: PRMT5 Biochemical Assay (PRMT5/MEP50 enzyme assay on peptide substrate, 3H-SAM Flashplate)
Conditions: PRMT5 biochemical assay; read-out: Biochemical IC50
Text: S-adenosylmethionine (SAM), S-adenosylhomocysteine (SAH), bicine, KCl, Tween20, dimethylsulfoxide (DMSO), bovine skin gelatin (BSG), and Tris(2-carboxyethyl)phosphine hydrochloride solution (TCEP) were purchased from Sigma-Aldrich at the highest level of purity possible. ^3H-SAM was purchase from American Radiolabeled Chemicals with a specific activity of 80 Ci/mmol. 384-well streptavidin Flashplates were purchased from PerkinElmer.
Peptide representative of human histone H4 residues 1-15 was synthesized with a C-terminal linker-affinity tag motif and a C-terminal amide cap by 21st Century Biochemicals. […] The sequence was Ac-[…][K-Biot]-amide (SEQ ID NO.:3).
Full-length human MEP50 (NM_024102) clone was amplified from a human testis cDNA library incorporating a 5′ sequence encoding a 6-histidine tag (MHHHHHH)(SEQ ID NO.:5) fused directly to Arg 2 of MEP50. The amplified genes were sublconed into pENTR/D/TEV (Life Technologies) and subsequently transferred by Gateway™ attL×attR recombination to pDEST8 baculvirus expression vector (Life Technologies).
Recombinant baculovirus and Baculovirus-Infected Insect Cells (BIIC) were generated according to Bac-to-Bac kit instructions (Life Technologies) and Wasilko, 2006, respectively. Protein over-expression was accomplished by infecting exponentially growing Spodoptera frugiperda (SF9) cell culture at 1.2×10^6 cell/ml with a 5000 fold dilution of BIIC stock. Infections were carried out at 27° C. for 72 hours, harvested by centrifugation, and stored at −80° C. for purification.
Flag-PRMT5/6His-MeP50 was eluted with 300 mM Imidazole in the same buffer. […] Reference: Wasilko, D. J. and S. E. Lee: “TIPS: titerless infected-cells preservation and scale-up” Bioprocess J., 5 (2006), pp. 29-32.
General Procedure for PRMT5/MEP50 Enzyme Assays on Peptide Substrates.
The assays were all performed in a buffer consisting of 20 mM Bicine (pH=7.6), 1 mM TCEP, 0.005% BSG, and 0.002% Tween20, prepared on the day of use. Compounds in 100% DMSO (1 ul) were spotted into a polypropylene 384-well V-bottom plates (Greiner) using a Platemate Plus outfitted with a 384-channel head (Thermo Scientific). DMSO (1 ul) was added to Columns 11, 12, 23, 24, rows A-H for the maximum signal control and 1 ul of SAH, a known product and inhibitor of PRMT5/MEP50, was added to columns 11, 12, 23, 24, rows I-P for the minimum signal control. A cocktail (40 ul) containing the PRMT5/MEP50 enzyme and the peptide was added by Multidrop Combi (Thermo-Fisher). The compounds were allowed to incubate with PRMT5/MEP50 for 30 min at 25 degrees Celsius, then a cocktail (10 ul) containing ^3H-SAM was added to initiate the reaction (final volume=51 ul).

Chain of PRMT5/MEP50 (O14744 other isoform, or with tags, fused parts or gaps): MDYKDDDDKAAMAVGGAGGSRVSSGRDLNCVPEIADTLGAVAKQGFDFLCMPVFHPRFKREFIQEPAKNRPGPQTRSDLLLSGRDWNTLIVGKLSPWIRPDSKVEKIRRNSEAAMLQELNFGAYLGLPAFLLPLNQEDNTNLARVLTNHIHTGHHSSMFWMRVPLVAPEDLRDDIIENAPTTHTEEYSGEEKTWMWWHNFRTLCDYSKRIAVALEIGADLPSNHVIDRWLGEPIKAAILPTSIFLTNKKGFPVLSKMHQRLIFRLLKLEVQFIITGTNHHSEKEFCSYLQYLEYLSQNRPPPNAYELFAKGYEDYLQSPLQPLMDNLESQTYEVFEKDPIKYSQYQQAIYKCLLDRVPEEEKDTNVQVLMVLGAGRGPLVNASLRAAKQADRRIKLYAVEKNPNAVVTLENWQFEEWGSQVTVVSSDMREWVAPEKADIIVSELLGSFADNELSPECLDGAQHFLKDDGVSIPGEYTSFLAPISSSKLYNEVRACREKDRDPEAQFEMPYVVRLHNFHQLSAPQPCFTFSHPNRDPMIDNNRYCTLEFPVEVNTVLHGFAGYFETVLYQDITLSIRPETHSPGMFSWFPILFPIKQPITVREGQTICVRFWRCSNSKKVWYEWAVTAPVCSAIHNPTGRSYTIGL
Chain of PRMT5/MEP50 (Q9BQA1 other isoform, or with tags, fused parts or gaps partner): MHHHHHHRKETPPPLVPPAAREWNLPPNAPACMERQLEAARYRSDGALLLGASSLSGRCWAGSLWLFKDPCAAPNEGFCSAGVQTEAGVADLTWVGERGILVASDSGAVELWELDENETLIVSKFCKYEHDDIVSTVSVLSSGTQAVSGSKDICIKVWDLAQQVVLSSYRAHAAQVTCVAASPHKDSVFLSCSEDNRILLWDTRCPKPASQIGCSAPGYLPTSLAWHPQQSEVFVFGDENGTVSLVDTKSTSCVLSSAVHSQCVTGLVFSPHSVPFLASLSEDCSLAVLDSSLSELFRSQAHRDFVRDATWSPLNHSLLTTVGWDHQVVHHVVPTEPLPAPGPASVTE

Compound: COc1cccc(OCC(=O)NCC(O)CN2CCc3ccccc3C2)c1 (stereo not shown) [Compound 20, N-(3-(3,4-dihydroisoquinolin-2(1H)-yl)-2-hydroxypropyl)-2-(3-methoxyphenoxy)acetamide]
IC50: < 100 nM

Compound: O=C(COc1c(CN2CCOCC2)ccc2cccnc12)NC[C@H](O)CN1CCc2ccccc2C1 [Compound 94]
IC50: < 100 nM

Compound: O=C(COc1ccccc1N1CCNCC1)NC[C@@H](O)CN1CCc2ccccc2C1 [Compound 270]
IC50: 1000 to 10000 nM

Compound: O=C(Cc1c[nH]c2ccccc12)NC[C@H](O)CN1CCc2ccccc2C1 [Compound 182]
IC50: 101 to 1000 nM

Compound: O=C(COc1cncc(C(=O)N2CCOCC2)c1)NCC(O)CN1CCc2ccccc2C1 (stereo not shown) [Compound 161]
IC50: 101 to 1000 nM

Compound: O=C(COc1ccccc1S(=O)(=O)N1CCCC1)NCC(O)CN1CCc2ccccc2C1 (stereo not shown) [Compound 110]
IC50: < 100 nM

Compound: CN1CCC(n2ncc3cc(OCC(=O)NCC(O)CN4CCc5ccccc5C4)ccc32)C1 (stereo not shown) [Compound 96]
IC50: < 100 nM

Compound: O=C(CCc1nc2ccccc2s1)NC[C@@H](O)CN1CCc2ccccc2C1 [Compound 193]
IC50: 1000 to 10000 nM

IC50: < 100 nM
Compound: Cn1ncc2ccc(OCC(=O)NC[C@H](O)CN3CCc4ccccc4C3)cc21 [Compound 159]

Compound: CN(c1ccccc1OCC(=O)NCC(O)CN1CCc2ccccc2C1)S(C)(=O)=O (stereo not shown) [Compound 155]
IC50: < 100 nM

Compound: CC(Oc1cccc2cccnc12)C(=O)NCC(O)CN1CCc2ccccc2C1 (stereo not shown) [Compound 39, N-(3-(3,4-dihydroisoquinolin-2(1H)-yl)-2-hydroxypropyl)-2-(quinolin-8-yloxy)propanamide]
IC50: < 100 nM

Compound: CN(C)c1ccc2cccc(OCC(=O)NC[C@@H](O)CN3CCc4ccccc4C3)c2n1 [Compound 105]
IC50: < 100 nM

Compound: O=C(COc1ccccc1S(=O)(=O)N1CCNCC1)NCC(O)CN1CCc2ccccc2C1 (stereo not shown) [Compound 107]
IC50: < 100 nM

Compound: Nc1ncnc2c(OCC(=O)NCC(O)CN3CCc4ccccc4C3)cccc12 (stereo not shown) [Compound 168]
IC50: < 100 nM

Compound: CN(C)CCOc1ccccc1OCC(=O)NC[C@H](O)CN1CCc2ccccc2C1 [Compound 88]
IC50: < 100 nM

Compound: CC(Oc1ccccc1S(N)(=O)=O)C(=O)NCC(O)CN1CCc2ccccc2C1 (stereo not shown) [Compound 126]
IC50: > 50000 nM

Compound: NS(=O)(=O)c1ccccc1OCC(=O)NCC(O)CN1CCc2ccccc2C1 (stereo not shown) [Compound 65]
IC50: < 100 nM

IC50: 1000 to 10000 nM
Compound: N-(3-(3,4-dihydroisoquinolin-2(1H)-yl)-2-hydroxypropyl)-2-((5,6,7,8-tetrahydronaphthalen-1-yl)oxy)acetamide [Compound 62]

Compound: O=C(COc1cccc2c1CCCC2)NCC(O)CN1CCc2ccccc2C1 (stereo not shown) [Compound 64]
IC50: < 100 nM

Compound: O=C(NCC(O)CN1CCc2ccccc2C1)C(O)c1ccccc1 (stereo not shown) [Compound 165]
IC50: 101 to 1000 nM

Compound: CC(NC(=O)COc1ccccc1S(N)(=O)=O)C(O)CN1CCc2ccccc2C1 (stereo not shown) [Compound 170]
IC50: < 100 nM

IC50: 1000 to 10000 nM
Compound: O=C(CCn1cnc2ccccc21)NC[C@H](O)CN1CCc2ccccc2C1 [Compound 248]

Compound: O=C(Cc1ccc2c(c1)OCO2)NC[C@H](O)CN1CCc2ccccc2C1 [Compound 174]
IC50: 101 to 1000 nM

Compound: O=C(CC1Cc2ccccc2C1)NC[C@H](O)CN1CCc2ccccc2C1 [Compound 179]
IC50: 101 to 1000 nM

Compound: O=C(COc1ccccc1-c1cc[nH]n1)NC[C@H](O)CN1CCc2ccccc2C1 [Compound 68]
IC50: < 100 nM

Compound: CNS(=O)(=O)c1ccccc1OCC(=O)NCC(O)CN1CCc2ccccc2C1 (stereo not shown) [Compound 123]
IC50: < 100 nM

IC50: 1000 to 10000 nM
Compound: O=C(COc1ccccc1[C@H]1CCCCN1)NC[C@@H](O)CN1CCc2ccccc2C1 [Compound 235]

Compound: Cc1cn(C)c2cccc(OCC(=O)NCC(O)CN3CCc4ccccc4C3)c12 (stereo not shown) [Compound 146]
IC50: < 100 nM

Compound: O=C(COc1cccc2cncnc12)NCC(O)CN1CCc2ccccc2C1 (stereo not shown) [Compound 181]
IC50: < 100 nM

IC50: < 100 nM
Compound: O=C(COc1ccccc1N1CCOCC1)NCC(O)CN1CCc2ccccc2C1 (stereo not shown) [Compound 49, N-(3-(3,4-dihydroisoquinolin-2(1H)-yl)-2-hydroxypropyl)-2-(2-morpholinophenoxy)acetamide]

IC50: 1000 to 10000 nM
Compound: Cn1c(CCC(=O)NC[C@@H](O)CN2CCc3ccccc3C2)nc2ccccc21 [Compound 268]

Compound: CN1CCN(c2ccccc2OCC(=O)NC[C@H](O)CN2CCc3ccccc3C2)CC1 [Compound 84]
IC50: < 100 nM

Compound: O=C(COc1ccccc1-c1cc[nH]n1)NC[C@@H](O)CN1CCc2ccccc2C1 [Compound 67]
IC50: < 100 nM

Compound: O=C(NC[C@H](O)CN1CCc2ccccc2C1)C1CNc2ccccc21 (stereo partly shown) [Compound 177]
IC50: 101 to 1000 nM

Compound: O=C(COc1cccc(NC2CCOCC2)c1)NCC(O)CN1CCc2ccccc2C1 (stereo not shown) [Compound 93]
IC50: < 100 nM

Compound: CC(C)(Oc1cccc2cccnc12)C(=O)NCC(O)CN1CCc2ccccc2C1 (stereo not shown) [Compound 43, N-(3-(3,4-dihydroisoquinolin-2(1H)-yl)-2-hydroxypropyl)-2-methyl-2-(quinolin-8-yloxy)propanamide]
IC50: < 100 nM

Compound: CN(C)CCN(C)S(=O)(=O)c1ccccc1OCC(=O)NC[C@@H](O)CN1CCc2ccccc2C1 [Compound 191]
IC50: < 100 nM

Compound: CS(=O)(=O)N1CCc2c(cccc2OCC(=O)NCC(O)CN2CCc3ccccc3C2)C1 (stereo not shown) [Compound 102, N-(3-(3,4-dihydroisoquinolin-2(1H)-yl)-2-hydroxypropyl)-2-((2-(methylsulfonyl)-1,2,3,4-tetrahydroisoquinolin-5-yl)oxy)acetamide]
IC50: < 100 nM

Compound: CN(C)c1cccc(OCC(=O)NCC(O)CN2CCc3ccccc3C2)c1 (stereo not shown) [Compound 27]
IC50: < 100 nM

Compound: Cn1ncc2c(OCC(=O)NCC(O)CN3CCc4ccccc4C3)cccc21 (stereo not shown) [Compound 82]
IC50: < 100 nM

Compound: CC(=O)N1CCN(c2ccccc2OCC(=O)NCC(O)CN2CCc3ccccc3C2)CC1 (stereo not shown) [Compound 90]
IC50: < 100 nM

Compound: O=C(COc1cccc2c1CNCC2)NCC(O)CN1CCc2ccccc2C1 (stereo not shown) [Compound 119]
IC50: < 100 nM

Compound: CN(C)c1cccc(OCC(=O)NCC(O)CN2CCc3ccccc3C2)c1S(N)(=O)=O (stereo not shown) [Compound 169]
IC50: < 100 nM

Compound: O=C(COC1CCOC1)NCC(O)CN1CCc2ccccc2C1 (stereo not shown) [Compound 171]
IC50: 1000 to 10000 nM

Compound: O=C(NC[C@H](O)CN1CCc2ccccc2C1)[C@@H]1C[C@@H]2CCCC[C@@H]2N1 [Compound 184]
IC50: 1000 to 10000 nM

Compound: CN1CCc2c(cccc2OCC(=O)NCC(O)CN2CCc3ccccc3C2)C1 (stereo not shown) [Compound 99]
IC50: < 100 nM

Compound: O=C(COc1ccccc1S(=O)(=O)N1CCOCC1)NCC(O)CN1CCc2ccccc2C1 (stereo not shown) [Compound 149]
IC50: < 100 nM

Compound: Cc1cccc(OCC(=O)NCC(O)CN2CCc3ccccc3C2)c1 (stereo not shown) [Compound 26]
IC50: < 100 nM

Compound: O=C(CC1CCc2ccccc21)NC[C@H](O)CN1CCc2ccccc2C1 (stereo partly shown) [Compound 178]
IC50: 101 to 1000 nM

Compound: O=C(COc1cccc(-c2ncc[nH]2)c1)NC[C@@H](O)CN1CCc2ccccc2C1 [Compound 186]
IC50: 1000 to 10000 nM

Compound: O=C(COc1cncc(CN2CCOCC2)c1)NCC(O)CN1CCc2ccccc2C1 (stereo not shown) [Compound 172]
IC50: 101 to 1000 nM

IC50: < 100 nM
Compound: CN1CC[C@@H](CN(C)S(=O)(=O)c2ccccc2OCC(=O)NC[C@@H](O)CN2CCc3ccccc3C2)C1 [Compound 272]

Compound: O=C(COc1ccccc1S(=O)(=O)N1CCC(O)C1)NCC(O)CN1CCc2ccccc2C1 (stereo not shown) [Compound 111]
IC50: < 100 nM

Compound: O=C(COc1ccccc1C1CCCCC1)NCC(O)CN1CCc2ccccc2C1 (stereo not shown) [Compound 40]
IC50: < 100 nM

IC50: < 100 nM
Compound: C[C@@H](Oc1cccc2cccnc12)C(=O)NC[C@@H](O)CN1CCc2ccccc2C1 [Compound 74]

IC50: 1000 to 10000 nM
Compound: CN1CCN(S(=O)(=O)c2ccccc2OCC(=O)NC[C@@H](O)CN2CCc3ccccc3C2)CC1CO (stereo partly shown) [Compound 233]

Compound: O=C(COc1cccc2cnncc12)NCC(O)CN1CCc2ccccc2C1 (stereo not shown) [Compound 154]
IC50: 1000 to 10000 nM

Compound: O=C(NC[C@H](O)CN1CCc2ccccc2C1)C1COc2ccccc2O1 (stereo partly shown) [Compound 183]
IC50: 101 to 1000 nM

Compound: Cn1cnc(-c2ccccc2OCC(=O)NCC(O)CN2CCc3ccccc3C2)c1 (stereo not shown) [Compound 153]
IC50: < 100 nM

Compound: CS(=O)(=O)Nc1ccccc1OCC(=O)NCC(O)CN1CCc2ccccc2C1 (stereo not shown) [Compound 53]
IC50: < 100 nM

Compound: O=C(COc1cccc2ccc(N3CCOCC3)nc12)NCC(O)CN1CCc2ccccc2C1 (stereo not shown) [Compound 48, N-(3-(3,4-dihydroisoquinolin-2(1H)-yl)-2-hydroxypropyl)-2-((2-morpholinoquinolin-8-yl)oxy)acetamide]
IC50: < 100 nM
